Results published in patent US6601010B1 (priority 2000, dated 2003).
Where a name gives a salt, the structure may show the parent alone. Read-outs that look alike come from different tables or passages of the source.

Experiments:
male Sprague Dawley rats = assay: Quantification of harmaline-induced tremor in rats (force plate actometer); format: in vivo, rat
Experimental: Thirty-two male Sprague Dawley rats from Harlan Co, Indianapolis, Ind., were studied.
The apparatus was the force plate actometer, described above, with no adjustments or modifications. If one were to use the instrument primarily for tremor studies, it would be possible to “tune” it for such purposes. For example, sessions of recording shorter than 30 min may be preferred and a sampling rate of 100 Hz or more may be desirable.
The rats were divided into 4 separate groups of 8 rats each. Separate groups received different doses of Harmaline hydrochloride as follows: 0.0 (saline), 4.0, 8.0, and 16.0 mg/kg, ip, 1-2 minutes before being placed in the recording chamber.
Data from the 30-min sessions were broken into 45 equal-length intervals of 40.96 s (or 2048 samples at a sampling rate of 50 Hz). […] Then, a tremor index was computed for each power spectrum. The tremor index was the difference between the average power in the 0.02-4.980 Hz frequency band and the 5.005-15.015 Hz frequency band of each power spectrum. This calculation emphasizes the peaking of the spectrum in the 5-15 Hz frequency band regardless of the absolute power level of the spectrum. A session average of the tremor index was obtained for each rat. Dose-effects statistical analyses were performed with one-way analysis of variance.

[1] = system: unilaterally 6-hydroxydopamine lesioned and sham rats; assay: Rotational behavior induced by d-amphetamine in rats unilaterally lesioned with 6-hydroxydopamine (Parkinsonism model); format: in vivo, rat; settings: d-amphetamine 3.0 mg/kg ip
Experimental: These rats met the same specifications as those used in Examples 1 and 2.
The apparatus was the force plate actometer with the cylindrical insert installed as depicted in FIG. 20. This insert presents the rat with a circular arena in which it can move. Note that neither harness nor tether was used. The rotations were calculated by the computer from the position coordinates derived from the force plate.
Rats were lesioned with the neurotoxin 6-hydroxydopamine. Surgery was performed under ketamine plus xylazine anesthesia. A Kopf stereotaxic instrument was used to guide the injection cannula to the substantia nigra pars compacta. A sham surgery group received the same surgical procedure but saline instead of toxin. About 2 weeks after surgery and at two week intervals rats received three separate injections of d-amphetamine (3.0 mg/kg, ip, 15 min prior to recording sessions). Data shown here were from one control rat and one lesioned rat for the third drug treatment. Data were analyzed with the OFFLINEP.PAS program (FIGS. 18A-18C).

[2] = system: BALB/c, C57BL/6 and CD-1 mice; assay: Mouse strain differences in response to daily treatment with d-amphetamine (force plate actometer); format: in vivo
Experimental: Male mice from Charles River Laboratories. BALB/c (n=32), C57BL/6 (n=32), and CD-1 (an outbred strain, n=32), were about 10 weeks old when the treatments began.
Four currently operating force plate chambers were used (the cylindrical insert was not present).
For each type of mouse, 4 dose groups were formed so that 8 mice of each strain received either saline, 1.0, 2.5 or 5.0 mg/kg d-amphetamine. On five consecutive days the mice received ip injections 1-2 min before being placed in the recording chambers for 30 min. Immediately before the drug session each mouse received a 30-min recording session preceded by a saline injection.
Data were analyzed with a version of OFFLINEP.PAS that divided the session into 9 intervals of 3 min and 24.8 s, instead of 45 frames as in the studies described in the preceding Examples. However, some graphic analyses were carried out with 45 frames. Analysis of variance was used to assess the effects of strain, dose, time within a session, and days of treatment (i.e., a 3×4×9×5 factorial design).

BALB/c and C57BL/6 mice = assay: Wall rearing of mice counted by the force plate actometer algorithm; format: in vivo, mouse; settings: amphetamine 2.5 mg/kg, 30-min session
Excerpt: The preferred force plate actometer of this invention provides data that, when appropriately filtered and processed, provides estimates of the number of wall rears that an animal makes. This is of importance in pharmacology and behavioral genetics studies because some drugs are known to suppress rearing, and genetic endowment influences mouse rearing behavior. It is possible to detect wall rearing because when the mouse rears on hind legs and presses its forepaws against the side of the enclosure a substantial proportion of its body weight is transferred to the wall which is suspended above the force plate. […] Data from four chambers are concurrently expressed as the smoothed Fz values, and these are processed in a stream from the beginning of the session to the end of the session. The rears are quantified according to occurrence, intensity, duration of the rear, and time between the rears.
The program was validated by comparing the results from a human observer viewing video tapes taken from 30-min sessions of force plate recording for two mice: one BALB/c and one C57BL/6 mouse, two very genetically different mice. In terms of number of rears for the BALB/c mouse the video scored and computer scored wall rears were correlated +0.842 across 30 1-min blocks of the session. […]

male Sprague-Dawley rats = assay: Instrument-scored stereotypies induced by d-amphetamine in rats (force plate actometer); format: in vivo, rat
Experimental: The subjects were male Sprague-Dawley rats about 4 months old at the time of the treatments. Nine rats received amphetamine injections and 8 separate rats got physiological saline injections. These rats weighed about 350 g each and were obtained from Harlan Co., Indianapolis, Ind.
The apparatus was four concurrently operating force plate actometers as described previously.
Rats in the amphetamine group were injected (ip.) with d-amphetamine sulfate 3.0 mg/kg 15 min before being placed in the chambers for 30 min of recording. Amphetamine injections were administered on three separate occasions spaced 2 weeks apart for each amphetamine group rat. Data from the 3rd session, when stereotypies were expected to be intense, were used for the analyses. Rats in the saline group received ip injections of physiological saline before recording sessions on three separate days. Data from the 3rd day were used for comparison with the amphetamine group.
Data were analyzed with the computer program OFFLINEP.PAS (FIGS. 18A-18C) and with additional techniques available in Systat. The program OFFLINEP.PAS identified bouts of low mobility, defined as periods of no locomotion outside of a 30 mm diameter circle for 10.24 s. Corresponding records of the force variation during the same time frame were stored so that the rhythmic components of behavior could be quantified with Fourier analysis. The basic concept was to define stereotypy as the intensity and rhythm of behavior occurring in “one place” under the influence of a stereotypy-inducing dose of amphetamine and to compare these measures to animals “staying in one place” but not under the influence of a drug.

[3] = system: CD-1, BALB/c and C57BL/6 mice; settings: 2.0 g/kg ip; for locomotor stimulation during the first time block: versus saline control
Experimental: The subjects were 12 male mice of each of the three strains: CD-1, BALB/c, and C57BL/6 obtained from Charles River Laboratories.
The force plate actometer was used as described above.
The mice were subdivided into groups of 6 each. One group received saline, and the corresponding other group of that strain received a dose of 2.0 g/kg of ethanol in a 20% aqueous solution. This was the first exposure to the chamber for these mice. Within 1-2 min of the ip injection the mice were placed in the chamber and behavior was recorded for 30 min.
The distance data were divided into 6 blocks of 5 min each, and analysis of variance (3 strains×saline vs drug×6 time blocks) was used to establish the presence of effects.

[4] = 3.0 mg/kg ip, Fourier analysis, FIG. 3

Question: Which results are given for `COc1ccc2c3c([nH]c2c1)C(C)=NCC3.Cl` [harmaline, Harmaline hydrochloride]?
Answer: effect of dose on tremor index (male Sprague Dawley rats; rats, 0, 4.0, 8.0, 16.0 mg/kg ip, session average, one-way ANOVA F (3,28)=5.090, p=0.006, FIG. 6): statistically significant; latency to the first bout of low mobility (male Sprague Dawley rats; rats, 0-16.0 mg/kg ip, F(2,28)=3.222, p=0.038): significantly shortened; shape of the dose-effect function of the tremor index (male Sprague Dawley rats; rats, 0-16.0 mg/kg ip, FIG. 6): log linear; effect on locomotor activity (male Sprague Dawley rats; rats, 0-16.0 mg/kg ip, same session, F(3,28)=6.514, p=0.002): dose-relatedly suppressed locomotor activity; peaking in the power spectra of Fz force (male Sprague Dawley rats; rats, the two higher doses (8.0 and 16.0 mg/kg ip), one rat per dose, FIG. 5): pronounced

Question: Which “rotational behavior, movement tracings” value ([1]; one 6-OHDA lesioned rat, FIG. 8) does the source give for `C[C@H](N)Cc1ccccc1` [amphetamine, d-amphetamine sulfate] here?
Answer: The value was “robust rotational behavior”.

Question: What about the “rotations to the right in 30-min session” value ([1]; one 6-OHDA lesioned rat, third treatment, FIG. 10) of the same molecule?
Answer: Its value is 62 rotations.

Question: What about the “bouts of high activity with low mobility (stereotypy score)” value ([1]; one 6-OHDA lesioned rat, third treatment, FIG. 12) of the same molecule?
Answer: Its value is “four”.

Question: And the “locomotion, movement tracings” value ([1]; one unlesioned control rat, FIG. 7)?
Answer: The value was “very little locomotion”.

Question: What about the stereotypy score ([1]; one unlesioned control rat, frame 14 to end of session, FIG. 11) of the same molecule?
Answer: The stereotypy score was 250-300.

Question: And the “leftward rotations at the beginning of the session” value ([1]; one unlesioned control rat, third treatment, FIG. 9)?
Answer: Its value is 12 rotations.

Question: And the “distance traveled, ranking of strains” value ([2]; 2.5 mg/kg ip, CD-1, C57BL/6, BALB/c, FIG. 15)?
Answer: The value was “CD-1's were stimulated the most and the BALB/c's the least”.

Question: And the “spatial statistic, restriction of movements in space” value ([2]; BALB/c mouse, the two highest doses (2.5 and 5.0 mg/kg))?
Answer: Its value is “greater tendency to restrict its movements in space”.

Question: What about the “distance traveled across the 5 treatment days” value ([2]; C57BL/6 mouse, 2.5 mg/kg ip) of the same molecule?
Answer: The value was “showed a sensitization effect”.

Question: And the “movement trajectories (locomotion)” value ([2]; one C57BL/6 mouse, fifth injection of 5.0 mg/kg ip, FIG. 14 versus saline FIG. 13)?
Answer: Its value is “locomotor stimulating effect of the drug is apparent”.

Question: And the “distance traveled, effect of dose” value ([2]; three mouse strains, saline, 1.0, 2.5, 5.0 mg/kg ip, 5 days, ANOVA dose F(3,84)=73.787, p<0.001, strain-by-dose F(6,84)=9.293, p<0.001, FIG. 15)?
Answer: Its value is “significant effects”.

Question: What about the “spatial statistic (spatial index), effect of dose” value ([2]; three mouse strains, saline, 1.0, 2.5, 5.0 mg/kg ip, ANOVA dose F(3,84)=38.192, p<0.001, strain-by-dose F(6,84)=4.991, p<0.001, FIG. 16) of the same molecule?
Answer: The value was “significant effects”.

Question: And the “mean number of wall rears” value (BALB/c and C57BL/6 mice; BALB/c mice, untreated mean 92.5 rears)?
Answer: The value was 3.75 rears/session.

Question: What about the “mean number of wall rears” value (BALB/c and C57BL/6 mice; C57BL/6 mice, untreated mean 70.8 rears) of the same molecule?
Answer: Its value is 3.5 rears/session.

Question: What about the “number of low mobility bouts per frame versus saline control” value (male Sprague-Dawley rats; 3.0 mg/kg ip 15 min before 30-min session, 3rd injection, FIG. 1) of the same molecule?
Answer: Its value is “comparable amounts of low mobility bouts”.

Question: What about the “stereotypy score (activity during low mobility bouts) versus saline control” value (male Sprague-Dawley rats; 3.0 mg/kg ip, 3rd injection, FIG. 2) of the same molecule?
Answer: Its value is “very active”.

Question: And the “visual observation of stereotypies on removal from the chamber” value (male Sprague-Dawley rats; 3.0 mg/kg ip, 3rd injection, n=9)?
Answer: Its value is “all nine rats were engaged in classical nose poking, sniffing, and head-weaving stereotypies”.

Question: And the “difference in spectral power, amphetamine rats above saline controls” value (male Sprague-Dawley rats; 3.0 mg/kg ip, FIG. 3 versus FIG. 4, controls show no 10-Hz peak)?
Answer: The value was 10-20 db.

Question: And the “frequency range of strong rhythmicity in power spectra of low mobility bouts” value (male Sprague-Dawley rats; [4])?
Answer: The value was 8-11 Hz.

Question: And the “low frequency power in power spectra of low mobility bouts” value (male Sprague-Dawley rats; [4])?
Answer: The value was “distinctive lack of low frequency power below about 0.5 Hz”.

Question: Which results are given for `CCO` [ethanol]?
Answer: distance traveled, strain-by-ethanol interaction ([3]; ANOVA F(2,30)=3.257, p=0.05): significant strain-by-ethanol interaction; distance traveled, time-by-ethanol interaction ([3]; ANOVA F(5,150)=7.629, p<0.001): significant-time-by-ethanol interaction; locomotor stimulation during the first time block ([3]; BALB/c strain): greater amount of ethanol related locomotor stimulation; proportional increase in activity, BALB/c versus other strains ([3]; BALB/c, early in session): greatest proportional increase in activity; locomotor stimulation during the first time block ([3]; CD-1 strain): least stimulation; distance traveled versus saline treated mice ([3]; three mouse strains, 30 min in 5-min blocks, FIG. 17): initially stimulated
